The values that follow are results of earlier work, collected in patent US9744192B2, “Methods of treating chronic rhinosinusitis” (priority 2015, dated 2017).

Read-outs that look alike come from different tables or passages of the source.

Series [1] deals with Bacillus shiga-kruse (aka: Shigella dysenteriae). Conditions: 2-3% aqueous boric acid, agar culture.
Series [2] concerns 17 bacterial strains including Staphylococcus aureus, Enterococcus faecalis, E. coli, Klebsiella pneumonia and others. Conditions: 2.5% boric acid.
A further series concerns Candida albicans. Conditions: for strains with complete growth inhibition: 1% aqueous boric acid.
For series [3] the following is noted: aqueous solution, pH=7.4.
Series [4] concerns 17 bacteria and fungi (human pathogens).
The test system of series [5] is Saccharomyces cerevisiae cells. Conditions: living cells.

Regarding `OB(O)O` [boric acid, Boric acid], the agglutination result in series [1] is listed as “marked agglutination”. The “bacterial strains with complete growth inhibition” value in series [2] was 17 of 17. The “strains with complete growth inhibition” value in the series on Candida albicans (fluconazole-resistant strains) is 24 of the 25; in the series on Candida albicans (fluconazole-susceptible strains), 45 of the 46. The “sudden physical membrane damage” value in the series with Candida albicans (1% boric acid) is “No sign of sudden physical membrane damage”. Besides, in the series with Candida albicans (24 hour exposure to 1% boric acid), the membrane integrity result is recorded as “decreased only slightly”. Besides, the “tissue irritation or other adverse events” value (in vivo) was “little or no evidence”. Also, under “topical”, the “absorption across uninjured skin or vaginal epithelium” value was “not significantly absorbed”. In series [3], the “borate B(OH)4− share of equilibrium” value is 1.6%. For the same compound, the “free boric acid B(OH)3 share of equilibrium” value in series [3] was 98.4%. Also, the “integrity of initial bacterial or fungal counts” value in series [4] (boric acid 1.8-2%, urine samples, up to 24 hours at 24° C.) is “maintained for all human pathogens studied”. The “reversibility of the bacteriostatic effect after dilution into nutrient culture media” value in series [4] (preserved samples diluted out) was “rapid and complete reversibility”. Also, the “effect on cell morphology” value in series [5] was “alter the morphology”.
